In PMC10609499, “In Vitro Assessment of the Antidiabetic and Anti-Inflammatory Potential of Artemisia absinthium, Artemisia vulgaris and Trigonella foenum-graecum Extracts Processed Using Membrane Technologies” (Molecules, 2023):
Like-named read-outs stand apart in the source and are kept apart here.

What was measured:
[1] = target: α-glucosidase from Saccharomyces cerevisiae (EC 3.2.1.20) (Saccharomyces cerevisiae, UniProt P53341); assay: α-Glucosidase inhibition assay; format: biochemical
Protocol: (§1) The IC50 values were calculated via the linear regression analysis. Significant statistical differences were considered at p < 0.05.

[2] = target: T1, α-amylase from hog pancreas (EC 3.2.1.1) (Sus scrofa, UniProt P00690); assay: α-Amylase inhibition assay; format: biochemical; settings: hog pancreas enzyme, starch substrate, 37 °C, DNS, pH 6.9; mean ± SD of triplicate
T1 construct: from tissue; host or cells: hog pancreas
T1 sequence (P00690 16-511): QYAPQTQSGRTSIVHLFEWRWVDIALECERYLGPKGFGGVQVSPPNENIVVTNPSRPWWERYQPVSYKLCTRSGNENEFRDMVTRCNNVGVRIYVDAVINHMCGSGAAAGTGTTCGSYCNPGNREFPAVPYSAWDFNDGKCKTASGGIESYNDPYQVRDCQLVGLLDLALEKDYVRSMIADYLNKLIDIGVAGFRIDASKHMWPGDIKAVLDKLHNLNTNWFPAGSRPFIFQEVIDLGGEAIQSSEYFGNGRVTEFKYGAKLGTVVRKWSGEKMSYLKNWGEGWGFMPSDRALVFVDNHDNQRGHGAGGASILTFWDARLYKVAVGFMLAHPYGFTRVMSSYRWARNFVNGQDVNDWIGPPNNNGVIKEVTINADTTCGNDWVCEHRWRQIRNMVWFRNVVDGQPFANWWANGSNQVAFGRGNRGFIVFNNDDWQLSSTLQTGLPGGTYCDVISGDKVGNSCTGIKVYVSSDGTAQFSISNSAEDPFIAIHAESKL
Protocol: The α-amylase inhibition assay was performed according to the Ranilla method, which was slightly modified. Thus, 100 μL of extract was mixed with 250 μL of α-amylase from hog pancreas (EC 3.2.1.1) (0.5 mg/mL in 0.02 M sodium phosphate buffer, pH 6.9 with 0.006 M NaCl) and was incubated at 37 °C for 20 min; then, 250 μL of starch solution (1% in sodium phosphate buffer) was added, and the mixture was incubated at 37 °C for 30 min; then, 500 μL of dinitrosalicylic acid (DNS) was added and the mixture was boiled for 5 min. Finally, 5 mL of distilled water was added to the reaction mixture. […] The calculation of the results was carried out using the following formula:(4) % Amylase inhibition=ΔAcontrol−ΔAsample/ΔAcontrol × 100
as §1

[3] = target: T2, lipoxygenase (EC 1.13.11.12) (Glycine max, UniProt P08170); assay: Lipoxygenase inhibition assay; format: biochemical; settings: 234 nm, mean ± SD of triplicate
T2 sequence (P08170 1-839): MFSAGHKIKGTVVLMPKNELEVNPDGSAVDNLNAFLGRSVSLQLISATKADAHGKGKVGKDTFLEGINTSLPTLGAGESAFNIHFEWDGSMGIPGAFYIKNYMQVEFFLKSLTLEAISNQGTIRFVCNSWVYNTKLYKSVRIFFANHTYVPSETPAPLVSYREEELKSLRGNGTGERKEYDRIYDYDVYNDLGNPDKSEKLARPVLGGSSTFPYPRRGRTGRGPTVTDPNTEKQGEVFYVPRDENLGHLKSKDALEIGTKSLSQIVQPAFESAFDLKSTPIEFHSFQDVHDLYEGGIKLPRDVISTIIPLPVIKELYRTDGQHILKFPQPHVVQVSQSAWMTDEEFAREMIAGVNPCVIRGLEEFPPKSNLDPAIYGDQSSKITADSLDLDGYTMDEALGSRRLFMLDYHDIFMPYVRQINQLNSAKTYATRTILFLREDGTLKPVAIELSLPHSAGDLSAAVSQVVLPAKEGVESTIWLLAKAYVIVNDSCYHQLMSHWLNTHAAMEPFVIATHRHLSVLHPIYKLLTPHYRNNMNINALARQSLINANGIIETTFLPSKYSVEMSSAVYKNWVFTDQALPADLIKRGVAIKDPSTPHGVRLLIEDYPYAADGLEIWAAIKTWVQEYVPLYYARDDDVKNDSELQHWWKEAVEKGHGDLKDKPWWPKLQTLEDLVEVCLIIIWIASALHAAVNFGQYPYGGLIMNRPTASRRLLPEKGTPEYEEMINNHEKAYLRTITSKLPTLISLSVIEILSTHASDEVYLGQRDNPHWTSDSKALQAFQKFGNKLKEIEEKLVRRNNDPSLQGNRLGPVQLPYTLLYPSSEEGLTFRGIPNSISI
Protocol: as §1

[4] = DPPH radical scavenging activity; settings: absorbance at 517 nm after 10 min; mean ± SD of triplicate
Protocol: The scavenging activity on the DPPH radical of samples was determined by measuring the decrease in the DPPH maximum absorbency at 517 nm after 10 min [64] and was calculated as follows:radical scavenging activity (%) = [(AB − AA)/AB] × 100(2) where: AB = control absorbance and AA = sample absorbance.

[5] = Reducing power activity (iron (III) to iron (II) reduction); settings: absorbance at 700 nm; mean ± SD of triplicate
Protocol: • ○ Reducing Power Activity (Iron (III) to iron (II) reduction) Reducing power was determined according to a previously described procedure. The absorbance was measured spectrophotometrically at 700 nm and calculation was carried out using the following formula:Reducing power (%) = [(AA − AB)/AA] × 100(3) where AA = sample absorbance; AB = control absorbance.

[6] = linoleic acid substrate, read-out: Inhibition of LOX IC50 (converted)

Chain of α-glucosidase from Saccharomyces cerevisiae (EC 3.2.1.20) (P53341 whole entry): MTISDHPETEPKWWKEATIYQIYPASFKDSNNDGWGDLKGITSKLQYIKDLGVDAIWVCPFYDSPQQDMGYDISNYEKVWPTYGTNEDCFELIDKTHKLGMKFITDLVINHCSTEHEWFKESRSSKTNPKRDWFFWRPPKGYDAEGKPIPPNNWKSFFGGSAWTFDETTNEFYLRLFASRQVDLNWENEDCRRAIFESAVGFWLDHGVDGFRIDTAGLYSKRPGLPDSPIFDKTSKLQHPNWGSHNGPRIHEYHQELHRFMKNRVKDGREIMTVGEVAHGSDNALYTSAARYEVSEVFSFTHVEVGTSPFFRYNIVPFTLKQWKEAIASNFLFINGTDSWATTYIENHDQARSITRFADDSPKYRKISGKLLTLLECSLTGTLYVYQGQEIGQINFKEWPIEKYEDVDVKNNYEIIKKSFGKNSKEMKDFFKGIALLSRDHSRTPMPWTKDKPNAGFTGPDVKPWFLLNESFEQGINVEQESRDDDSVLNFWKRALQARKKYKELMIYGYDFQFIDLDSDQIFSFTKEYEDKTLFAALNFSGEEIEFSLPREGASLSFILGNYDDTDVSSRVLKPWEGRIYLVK

## O=C(/C=C/c1ccc(O)c(O)c1)O[C@H](Cc1ccc(O)c(O)c1)C(=O)O [Rosmarinic acid]
[1]
  IC50: 0.5 µM
[2]
  IC50: 2.5 µM
[3]; Inhibition of LOX IC50, linoleic acid substrate
  IC50: 84.1 µM

## O=C(/C=C/c1ccc(O)c(O)c1)O[C@@H]1C[C@](O)(C(=O)O)C[C@@H](O)[C@H]1O [Chlorogenic acid]
[2]
  IC50: 5.36 µM
[3]; [6]
  IC50: 73.7 µM

## C[C@@H]1O[C@@H](OC[C@H]2O[C@@H](Oc3c(-c4ccc(O)c(O)c4)oc4cc(O)cc(O)c4c3=O)[C@H](O)[C@@H](O)[C@@H]2O)[C@H](O)[C@H](O)[C@H]1O [Rutin]
[3]; [6]
  IC50: 36.6 µM

## O=C1O[C@H]([C@@H](O)CO)C(O)=C1O [Ascorbic acid]
[4]
  % DPPH Inhibition: 96.9 ± 3.6%
[5]
  Reducing Power %: 34.5 ± 1.3%
